What all share (test): Microculture tetrazolium assay
Common to all, as to type: cell-based

The test system of assay [1] is SKOV3.
Assay [2] concerns SKVLB. To be noted: for VLB/OV3: IC50 ratio SKVLB/SKOV3; for IC50: SKVLB.
Assay [3] deals with T47D.
Assay [4] relates to HT29.
Assay [5] concerns LOX. As to conditions: read-out: IC50.
Setting [6] is: Homo sapiens, SK-OV-3, SKOV3, read-out: IC50.
Setting [7] is: Homo sapiens, HT-29, HT29, read-out: IC50.

The IC50 is the concentration that gives 50% inhibition.

Structures are written as SMILES. “And” between values parts separate entries of the source, which are not always exact repeats. Identical values can stand only once. Counter-ions that a name gives are not always drawn. Like-named read-outs stand apart in the source and are kept apart here.

As to `CC(=O)CC1CC2=C(C(=O)c3cc4ccccc4c(O)c3C2=O)C(O[C@H]2C[C@H](N)[C@H](O)[C@H](C)O2)O1` (mixture of isomers) [BCH-2111, (1'S,1R,3S) and (1'S,1S,3R)-3-6-hydroxy-1-(2',3',6'-trideoxy-3'-amino-4'-hydroxy-L-lyxohexopyranose-5,12-dioxo-3,4,5,12-tetrahydroanthraceno[2,3-c]pyran-3-yl)propanone hydrochloride], the IC50 was 2.14 µM in assay [1] (setting [6]); 11.8 µM in assay [2] (read-out: IC50); 2.42 µM in assay [3] (Homo sapiens, read-out: IC50); 0.954 µM in assay [4] (setting [7]). Also, in assay [2], the VLB/OV3 was found to be 5.51.
Take `CC(=O)C1Cc2c(O)c3c(c(O)c2C(O[C@H]2C[C@H](N4CCOCC4)[C@H](O)[C@H](C)O2)O1)C(=O)c1ccccc1C3=O` (some centres unmarked) [BCH-1193]: the IC50 in assay [1] (SKOV3) is 1.95 µM; in assay [2], 4.79 µM and 4.92 µM; in assay [3], 2.57 µM and 4.16 µM; in assay [4] (HT29), 1.04 µM and 0.94 µM. The VLB/OV3 in assay [2] is reported as 2.46.
For the molecule `CC(=O)[C@@H]1Cc2c(O)c3c(c(O)c2[C@@H](O[C@H]2O[C@H](CO)[C@@H](O)[C@H](O)[C@H]2N)O1)C(=O)c1ccccc1C3=O` [BCH-1685, (1'R, 1R,3S)-3-aceto-5,12-dihydroxy-1(2-deoxy-2-amino-D-glucopyranose)-6,11-dioxo-3,4,6,11-tetrahydro-1H-anthra-[2,3-c]pyran], the IC50 is 0.81 µM in assay [1] (setting [6]), 53.2 µM in assay [2] (read-out: IC50), 0.683 µM in assay [5] and 1.93 µM in assay [4] (setting [7]). In assay [2], the VLB/OV3 is recorded as 65.68.
For `C=CC[C@H]1CC2=C(C(=O)c3cc4ccccc4c(O)c3C2=O)[C@H](O[C@H]2C[C@H](NC(=O)C(F)(F)F)[C@H](O)[C@H](C)O2)O1` [BCH-1686, (1'S,1S,3S)-3-(6-hydroxy-1-(2',3',6'-trideoxy-3'-trifluoroacetamido-4'-hydroxy-L-lyxohexopyranose)-5,12-dioxo-3,4,5,12-tetrahydroanthraceno-[2,3-C]pyran-3-yl)propene] the same measures were 0.972 µM, 2.53 µM, 0.684 µM, 1.84 µM and 2.60.
Regarding `C=CC[C@@H]1CC2=C(C(=O)c3cc4ccccc4c(O)c3C2=O)[C@@H](O[C@H]2C[C@H](NC(=O)C(F)(F)F)[C@H](O)[C@H](C)O2)O1` [BCH-1687, (1S,1R,3R)-3-(6-hydroxy-1-(2',3',6'-trideoxy-3'-trifluoroacetamido-4'-hydroxy-L-lyxohexopyranose)-5,12-dioxo-3,4,5,12-tetrahydroanthraceno-[2,3-c]pyran-3-yl)propene], the IC50 in assay [1] (setting [6]) is 0.791 µM; in assay [2] (read-out: IC50), 1.86 µM; in assay [5] it was 0.706 µM; in assay [4] (setting [7]), 1.24 µM. Further, in assay [2], the VLB/OV3 was found to be 2.35.
With `C=CC[C@@H]1CC2=C(C(=O)c3cc4ccccc4c(O)c3C2=O)[C@@H](O[C@H]2C[C@H](N)[C@H](O)[C@H](C)O2)O1` [BCH-2005, (1'S,1R,3R)-3-(6-hydroxy-1-(2',3',6'-trideoxy-3'-amino-4'-hydroxy-L-lyxohexopyranose)-5,12-dioxo-3,4,5,12-tetrahydroanthraceno-[2,3-c]pyran-3-yl)propene hydrochloride], the IC50 in assay [1] (setting [6]) was found to be 0.341 µM; in assay [2] (read-out: IC50) it was 0.364 µM; in assay [5] it was 0.138 µM; in assay [4] (setting [7]), 0.245 µM. Also, the VLB/OV3 in assay [2] worked out at 1.07.
Consider `C=CC[C@@H]1Cc2c(O)c3c(c(O)c2[C@@H](O[C@H]2C[C@H](NC(=O)C(F)(F)F)[C@H](O)[C@H](C)O2)O1)C(=O)c1ccccc1C3=O` [BCH-2108, (1'S,1R,3R)-3-(5,12-dihydroxy-1-(2',3',6'-trideoxy-3'-trifluoroacetamido-4'-hydroxy-L-lyxohexopyranose)-6,11-dioxo-3,4,5,12-tetrahydroanthraceno-[2,3-c]pyran-3-yl)propene], for which the IC50 in assay [1] (setting [6]) stood at 11.4 µM; in assay [2] (read-out: IC50), 14.3 µM; in assay [3] (Homo sapiens, read-out: IC50), 11.9 µM; in assay [4] (setting [7]), 8.52 µM. Also, the VLB/OV3 in assay [2] came out at 1.25.

(Values after patent US5593970A, “Heterocyclic anthracycline analogs” (priority 1994, dated 1997).)
